# Where two headings read alike, the source gives them in different places.
# Columns and labels:
# [1] = test system: HT-29 human colon carcinoma cells; settings: references [5, 6]; cited from earlier work
# [2] = test system: HT-29 human colon carcinoma cells; experiment: Antiproliferative effects, crystal violet staining, HT-29 cells; assay type: cell-based
# Procedure: (§1) MCF-7 breast cancer and HT-29 human colon carcinoma cells were maintained in 10 % (v/v) fetal calf serum containing cell culture medium (minimum essential eagle supplemented with 2.2 g NaHCO3, 110 mg/L sodium pyruvate and 50 mg/L gentamicin sulfate adjusted to pH 7.4) at 37°C/5 % CO2 and passaged twice a week according to standard procedures. The antiproliferative effects of Rh1a - Rh5a were determined by an established procedure. Cells were suspended in cell culture medium (MCF-7: 10000 cells/mL, HT-29: 2850 cells/mL), and 100 µL aliquots thereof were plated in 96 well plates and incubated at 37°C/5 % CO2 for 72 h (MCF-7) or 48 h (HT-29). Stock solutions of the compounds in DMSO were freshly prepared and diluted with cell culture medium to the desired concentrations (final DMSO concentration: 0.1 % v/v). The medium in the plates was replaced with the medium containing the compounds in graded concentrations (six replicates). After further incubation for 96 h (MCF-7) or 72 h (HT-29) the cell biomass was determined by crystal violet staining and the IC50 values were established as those concentrations causing 50 % inhibition of cell proliferation. Results were calculated from 2 - 3 independent experiments. The results are summarized in Tab. 1 and Fig. 4. Table 1 IC50 values (µM) for the complexes mer-[RhCl3(DMSO)(pp)] Rh1a - Rh5a
# (§2) The antiproliferative effects of the compounds Ir1a - Ir5a were determined as described in Example 2.
# HT-29 = experiment: Cellular uptake of iridium (GF-AAS), HT-29 cells; assay type: cell-based, human; settings: 6 h, 0.0: value below the detection limit; for HT-29 uptake 10 µM: 10 µM complex; for HT-29 uptake 100 µM: 100 µM complex
# Procedure: (§3) For cellular uptake studies, HT-29 and MCF-7 cells were grown until at least 70 % confluency in 175 cm^2 cell culture flasks. Stock solutions of complexes Ir1a - Ir5a in DMSO were freshly prepared and diluted with cell culture medium to the desired concentrations (final DMSO concentrations: 0.1 % v/v, final complex concentration: 10 or 100 µM). The cell culture medium of the cell culture flasks was replaced with 10 mL of the cell culture medium solutions containing Ir1a - Ir5a (10 µM or 100 µM) and the flasks were incubated for 6 h at 37°C/5 % CO2. The cell pellets were isolated, resuspended in 1 - 5 mL […], lysed by using a sonotrode and approximately diluted using twice distilled water. The iridium content of the samples was determined by graphite furnace atomic absorption spectroscopy (GF-AAS) and the protein content of separate aliquots by the Bradford method. To correct for matrix effects in GF-AAS measurements, samples and standards were adjusted to the same protein concentration by dilution with twice distilled water. Prior to GF-AAS analysis 20 µL triton X-100 (1 %) and 20 µL hydrochloric acid were added to each 200 µL sample of the cell suspensions. Cellular uptake was expressed as ng iridium per mg cell protein for data obtained from 3 independent experiments. Conversion of the ng iridium/mg protein value to the micromolar cellular concentration was performed as described previously.
# (§4) A Vario 6 graphite furnace atomic absorption spectrometer (Analytik Jena) was employed for the lr quantification using a wavelength of 208.9 nm with a bandpass of 0.5 nm. A deuterium lamp was used for background correction. Matrix containing standards were obtained by addition of an iridium stock solution (1 mg/mL lr in 5 % HCl). 18 % hydrochloric acid solution was employed as a modifier. Probes were injected at a volume of 25 µL into graphite tubes. The detection limit for the method was 3.8 µg Ir L^-1. The mean AUC (area under curve) absorptions of duplicate injections were used throughout the study.
# MCF-7 breast cancer [3] = settings: references [5, 6]; cited from earlier work
# MCF-7 breast cancer [4] = experiment: Antiproliferative effects, crystal violet staining, MCF-7 cells; assay type: cell-based, human
# Procedure: as §1, §2
# MCF-7 cells = experiment: Cellular uptake of iridium (GF-AAS), MCF-7 cells; assay type: cell-based, human; settings: 6 h; for MCF-7 uptake 10 µM: 10 µM complex, 0.0: value below the detection limit; for MCF-7 uptake 100 µM: 100 µM complex
# Procedure: as §3, §4
# [5] = references [3], [4]; cited from earlier work
# Calu (lung carcinoma) = settings: Mestroni et al. [1]; cited from earlier work
# [6] = test system: A 2780 (ovarian carcinoma); settings: Mestroni et al. [1]; cited from earlier work
# LoVo (colon carcinoma) = settings: Mestroni et al. [1]; cited from earlier work
# [7] = Stability and isomerization in solution (1H NMR); assay type: physicochemical; settings: in DMSO
# tumour cell lines = settings: references [7, 8]; cited from earlier work
# mouse P 388 leukemia = settings: reference [2]; cited from earlier work
# [8] = Table 2, determined as described in Example 2
# [9] = Table 1, 72 h incubation, 2 - 3 independent experiments, spread in parentheses
# [10] = Table 1, 96 h incubation, 2 - 3 independent experiments, spread in parentheses
compound,measurement,setting,value
"[(η^5-C5Me5)IrCl(dppz)](CF3SO3) [compound 6, reference compound]",IC50,[1],7400 nM
same,IC50,[2]; [8],7400 nM
same,HT-29 uptake 10 µM,HT-29,70.4(1.0) ng Ir/mg protein
same,IC50,MCF-7 breast cancer [3],2300 nM
same,IC50,MCF-7 breast cancer [4]; [8],2300 nM
mer-[RhCl3(DMSO)(dppz)]·1.5H2O [Rh4a],IC50,[2]; [9],73 nM
same,IC50,MCF-7 breast cancer [4]; [10],95 nM
fac-[IrCl3(DMSO)(dppn)]·2CH3OH [Ir5a],IC50,[2]; [8],1300 nM
same,HT-29 uptake 10 µM,HT-29,37.4(8.9) ng Ir/mg protein
same,HT-29 uptake 100 µM,HT-29,226.1(26.6) ng Ir/mg protein
same,MCF-7 uptake 10 µM,MCF-7 cells,19.3(0.8) ng Ir/mg protein
same,MCF-7 uptake 100 µM,MCF-7 cells,180.8(2.7) ng Ir/mg protein
same,IC50,MCF-7 breast cancer [4]; [8],210 nM
mer-[RhCl3(DMSO)(dppn)] [Rh5a],IC50,[2]; [9],70 nM
same,IC50,MCF-7 breast cancer [4]; [10],51 nM
[Rh(Im)(tpy)2]Cl·3H2O,cytotoxicity,[5],exhibit cytotoxicity
"mer,cis-[RhCl3(DMSO-κS)(Im)2]",IC50,Calu (lung carcinoma),> 200000 nM
same,IC50,[6],> 200000 nM
same,IC50,LoVo (colon carcinoma),40000 ± 15000 nM
mer-[RhCl3(DMSO)(bpy)] [Rh1a],IC50,[2]; [9],1900 nM
same,isomerization,[7],isomerize rapidly to a mixture of fac- and mer-isomers
same,IC50,MCF-7 breast cancer [4]; [10],4000 nM
[ImH][trans-IrCl4(DMSO)(Im)],biological activity,tumour cell lines,biologically inactive
C1CSCCSCCN1.[Cl][Rh]([Cl])[Cl] [fac-[RhCl3(9-[ane]-NS2)]],cytotoxicity,[5],exhibit cytotoxicity
[Cl][Ir-]([Cl])([Cl])[Cl].c1c[nH+]c[nH]1.c1c[nH]cn1.c1c[nH]cn1 [[ImH][trans-IrCl4(Im)2]],biological activity,tumour cell lines,biologically inactive
fac-[IrCl3(DMSO)(bpy)·2H2O [Ir1a],IC50,[2]; [8],> 100000 nM
same,HT-29 uptake 10 µM,HT-29,0.0 ng Ir/mg protein
same,HT-29 uptake 100 µM,HT-29,0.0 ng Ir/mg protein
same,IC50,MCF-7 breast cancer [4]; [8],> 100000 nM
[Cl][Rh]([Cl])[Cl].c1ccc(-c2cccc(-c3ccccn3)n2)nc1 [mer-[RhCl3(tpy)]],cytotoxicity,[5],exhibit cytotoxicity
[(DMSO)2H] [[(DMSO)2H] [trans-IrCl4(DMSO)2]],biological activity,tumour cell lines,biologically inactive
mer-[RhCl3(DMSO)(phen)]·H2O [Rh2a],IC50,[2]; [9],190 nM
same,isomerization,[7],isomerize rapidly to a mixture of fac- and mer-isomers
same,IC50,MCF-7 breast cancer [4]; [10],400 nM
fac-[IrC/3(DMSO)(dppz)]·2H2O [Ir4a],IC50,[2]; [8],1500 nM
same,HT-29 uptake 10 µM,HT-29,11.9(3.0) ng Ir/mg protein
same,HT-29 uptake 100 µM,HT-29,1664.4(473.1) ng Ir/mg protein
same,MCF-7 uptake 10 µM,MCF-7 cells,3.3(3.3) ng Ir/mg protein
same,MCF-7 uptake 100 µM,MCF-7 cells,644.0(149.1) ng Ir/mg protein
same,IC50,MCF-7 breast cancer [4]; [8],800 nM
"N.N.[Cl][Pt][Cl] [Cisplatin, reference compound]",IC50,[2]; [9],7000 nM
same,IC50,[2]; [8],7000 nM
same,IC50,MCF-7 breast cancer [4]; [10],2000 nM
same,IC50,MCF-7 breast cancer [4]; [8],2000 nM
"c1ccc2nc3c4cccnc4c4ncccc4c3nc2c1 [dppz, dipyrido[3,2-a:2',3'-c]phenazine, reference compound]",IC50,"[2]; Homo sapiens, HT-29, Table 1, 72 h incubation, 2 - 3 independent experiments, spread in parentheses",1800 nM
same,IC50,"[2]; Homo sapiens, HT-29, Table 2, determined as described in Example 2",1800 nM
same,IC50,"MCF-7 breast cancer [4]; Homo sapiens, MCF7, Table 1, 96 h incubation, 2 - 3 independent experiments, spread in parentheses",800 nM
same,IC50,"MCF-7 breast cancer [4]; Homo sapiens, MCF7, Table 2, determined as described in Example 2",800 nM
"[(η^5-C5Me5)Ir{(Me2N)2CS}(dppn)](CF3SO3) [compound 7, reference compound]",IC50,[2]; [8],410 nM
same,HT-29 uptake 10 µM,HT-29,149.6(7.8) ng Ir/mg protein
same,IC50,MCF-7 breast cancer [4]; [8],170 nM
"mer,cis-[RhCl3(DMSO-κS)(py)2]",Activity against mouse P 388 leukemia,mouse P 388 leukemia,Activity
"CO.C[S+](C)(=O)[Ir-3]1([Cl])([Cl])([Cl])[n+]2cccc3ccc4ccc[n+]1c4c32.O [Ir2a, fac-[IrCl3(DMSO)(phen)]·CH3OH·H2O]",IC50,[2]; [8],4600 nM
same,HT-29 uptake 10 µM,HT-29,0.0 ng Ir/mg protein
same,HT-29 uptake 100 µM,HT-29,21.2(5.2) ng Ir/mg protein
same,MCF-7 uptake 10 µM,MCF-7 cells,0.0 ng Ir/mg protein
same,MCF-7 uptake 100 µM,MCF-7 cells,74.4(13.5) ng Ir/mg protein
same,IC50,MCF-7 breast cancer [4]; [8],4600 nM
fac-[IrC/3(DMSO)(dpq)·3H2O [Ir3a],IC50,[2]; [8],6100 nM
same,HT-29 uptake 10 µM,HT-29,0.0 ng Ir/mg protein
same,HT-29 uptake 100 µM,HT-29,167.8(3.4) ng Ir/mg protein
same,MCF-7 uptake 10 µM,MCF-7 cells,0.3(0.3) ng Ir/mg protein
same,MCF-7 uptake 100 µM,MCF-7 cells,640.5(148.9) ng Ir/mg protein
same,IC50,MCF-7 breast cancer [4]; [8],5500 nM
mer-[RhCl3(DMSO)(dpq)] [Rh3a],IC50,[2]; [9],69 nM
same,IC50,MCF-7 breast cancer [4]; [10],79 nM
